The values below come from US8865894B2, “Oxazolidin-2-one compounds and uses thereof” (Novartis AG, priority 2012, dated 2014).

Experiment [1] deals with T1, human PI3Kalpha p110 catalytic subunit (Rat-1 pBABEpuro Myr-HA-hp110alpha) (Homo sapiens, UniProt P42336).
T1 construct: Myr (myristoylation signal) (N); HA (N); expressed in transfected cells; host or cells: Rat-1
Description: Cellular assay PI3Kalpha (p-Akt(S473) SureFire, Rat-1_PI3Kalpha cells). The experiment is classed as cell-based. The following applies: 1 h compound treatment, read-out: Rat1-PI3Ka/ IC50. The text has this: AlphaScreen (Amplified Luminescent Proximity Homogeneous Assay, ALPHA, Perkin Elmer) is a non-radioactive bead-based proximity assay technology to study biomolecular interactions in a homogenous microtiter plate format. The brand name SureFire denotes AlphaScreen assays that are adapted to quantify the phosphorylation of endogenous cellular proteins in cell lysates, by using matched antibody pairs, which consist of an anti-phospho-kinase and an anti-kinase antibody. The assay allows characterization of kinase signaling in cells as well as measurement of kinase inhibitor effects. The AlphaScreen technology provides several advantages over standard assay techniques such as ELISA, as it avoids time-consuming washing procedures and reduces plate handling. Furthermore, it is miniaturizable at least to a 384-well format and provides sensitivity down to the femtomolar range, dependent on the affinity of the antibodies included in the individual AlphaScreen SureFire assay kit. High sensitivity is reached by an intrinsic amplification mechanism, which involves production of singlet oxygen molecules. SureFire assay kits are commercially available for specific targets and include pairs of validated antibodies (PerkinElmer). This report describes common procedures applied for AlphaScreen SureFire assays and respective semi-automated steps for routine kinase inhibitor profiling in cell-based assays.
The Rat-1 cell lines stably overexpressing activated PI3K class I isoforms Rat-1 pBABEpuro Myr-HA-hp110 delta (Rat-1_PI3Kdelta) and Rat-1 pBABEpuro Myr-HA-hp110alpha (Rat-1_PI3Kalpha) and Rat-1 pBABEpuro Myr-HA-hp110 beta (Rat-1_PI3beta) were prepared as described (Maira S M, Stauffer F, Brueggen J, Furet P, Schnell C, Fritsch C, Brachmann S, Chène P, de Pover A, Schoemaker K, Fabbro D, Gabriel D, Simonen M, Murphy L, Finan P, Sellers W, García-Echeverría C (2008), Mol Cancer Ther. 7:1851-63 and Maira S M, Pecchi S, Brueggen J, Huh K, Schnell C, Fritsch C, Nagel T, Wiesmann M, Brachmann S, Dorsch M, Chène P, Schoemaker K, De Pover A, Menezes D, Fabbro D, Sellers W, García-Echeverría C, Voliva C F (2011), Mol. Cancer Ther., accepted). All cell lines were cultivated in complete growth medium (DMEM high glucose, 10% (v/v) fetal bovine serum, 1% (v/v) MEM NEAA, 10 mM HEPES, 2 mM L-glutamine, puromycin (10 μg/mL for Rat-1_PI3Kdelta and Rat-1_PI3Kalpha, 4 ug/mL for Rat-1_PI3beta), 1% (v/v) Pen/Strep) to 90% confluency at 37° C./5% CO2/90% humidity in a humidified CO2 incubator and were split twice a week.
The following materials were used for p-AKT(S473) detection in Rat-1 cell lysates: Dulbecco's modified Eagle's medium (DMEM) high glucose (Gibco Invitrogen, Basel, Switzerland, Cat. No. 41965), Heat Inactivated Fetal Bovine Serum, Qualified (HI FBS; Gibco Invitrogen, Basel, Switzerland, Lot. No. 16140), MEM non essential amino acids (NEAA; Gibco Invitrogen, Basel, Switzerland, Cat. No. 11140), HEPES (Gibco Invitrogen, Basel, Switzerland, Cat. No. 15630), Penicillin/Streptomycin (Pen/Strep, 100×; Gibco Invitrogen, Basel, Switzerland, Cat. No. 15140-122), L-Glutamine (Gibco Invitrogen, Basel, Switzerland, Cat. No. 25030), Puromycin (Sigma Aldrich, Buchs, Switzerland, Cat. No. P9620), DMSO (MERCK, Dietikon, Switzerland, Cat. No. 8.02912.2500), H2O, MilliQ-H2O unless otherwise stated (MILLIPORE QGARDOOR1, Millipore, Zug, Switzerland), Bovine serum albumine (BSA; Sigma Aldrich, Buchs, Switzerland Cat. No. A8412), SureFire p-Akt 1/2 (Ser473) Assay Kit (PerkinElmer, Schwerzenbach, Switzerland, Cat. No. TGRAS50K).
The p-Akt(S473) SureFire assay measures the phosphorylation of endogenous cellular Akt 1/2 at Ser473 in cell lysates. Using Rat-1 cells stably expressing myr-HA-tagged versions of the human PI3Kdelta, PI3Kalpha, or PI3Kbeta p110 catalytic subunit isoforms, the assay was developed as a two-plate protocol in a 384-well format.

Another experiment has as its target T2, mTOR (Mus musculus, UniProt Q9JLN9).
T2 construct: endogenous in cells; host or cells: TSC1-/- MEF (mouse embryo fibroblasts)
Description: Cellular assay mTOR (phospho-T389 S6K1 SureFire in TSC1-/- MEF cells). The following applies: TSC1-/- MEF cells; read-out: mTOR S6K(T389)_TSC1ko/ IC50. It counts as cell-based. From the text:
A cell based assay (384-well format) was developed for determination of compound effects on cellular mTOR kinase activity in MEF (mouse embryo fibroblasts) cells derived from mice lacking TSC1 (Tuberosclerosis Complex1) a potent suppressor of mTOR kinase activity. Due to lack of TSC1 the mTOR kinase is constitutively activated resulting in permanent phosphorylation of Thr 389 of S6 kinase 1 (S6K1) which is one of the downstream targets of mTOR.
Using a SureFire Kit that enables to determine the phosphorylation of Thr389 on the S6K1 an assay was developed, validated and implemented in the Alpha-Screen format that allows the quantitative determination of phospho-T389 of S6K1 in cell lysates. […] These were in agreement with those values obtained with the biochemical mTOR ATP-binding assay enabling a quantitative comparison of potency of mTOR inhibitors.
TSC1−/− MEFs cells (Kwiatkowski, D. J., Zhang, H., Bandura, J. L., Heiberger, K. M., Glogauer, M., el-Hashemite, N., and Onda, H. (2002) Hum. Mol. Genet. 11, 525-534) were cultured in DMEM high glucose medium supplemented with 10% FBS (Invitrogen), 2 mM Glutamine and 1% (w/v) Penicillin/Streptomycin at 37° C., 5% CO2.
The SureFire kit for determination of P70S6kinase phosphorylation was purchased from Perkin Elmer (p70S6K p-T389, #TGR70S50K) and the assay was performed according to the instructions of the supplier and according to the generic method for SureFire assays. Shortly, 5 μL cell lysate per well were transferred to 384-well white proxy-plates (for luminescent readout) and mixed with […] and […] (final volume: 12 μL). After 3 h incubation in the dark at RT luminescence was read with the Envision Reader (Perkin Elmer). Untreated cells were used as control (high control) and cells treated with 3 μM BEZ235 were used as low control. The assay window between the signals obtained for the high and the low controls were defined as 100% and compound effects were expressed as percent inhibition. IC50 values were calculated from the dose response curves by graphical extrapolation.

T1 sequence (P42336 whole entry): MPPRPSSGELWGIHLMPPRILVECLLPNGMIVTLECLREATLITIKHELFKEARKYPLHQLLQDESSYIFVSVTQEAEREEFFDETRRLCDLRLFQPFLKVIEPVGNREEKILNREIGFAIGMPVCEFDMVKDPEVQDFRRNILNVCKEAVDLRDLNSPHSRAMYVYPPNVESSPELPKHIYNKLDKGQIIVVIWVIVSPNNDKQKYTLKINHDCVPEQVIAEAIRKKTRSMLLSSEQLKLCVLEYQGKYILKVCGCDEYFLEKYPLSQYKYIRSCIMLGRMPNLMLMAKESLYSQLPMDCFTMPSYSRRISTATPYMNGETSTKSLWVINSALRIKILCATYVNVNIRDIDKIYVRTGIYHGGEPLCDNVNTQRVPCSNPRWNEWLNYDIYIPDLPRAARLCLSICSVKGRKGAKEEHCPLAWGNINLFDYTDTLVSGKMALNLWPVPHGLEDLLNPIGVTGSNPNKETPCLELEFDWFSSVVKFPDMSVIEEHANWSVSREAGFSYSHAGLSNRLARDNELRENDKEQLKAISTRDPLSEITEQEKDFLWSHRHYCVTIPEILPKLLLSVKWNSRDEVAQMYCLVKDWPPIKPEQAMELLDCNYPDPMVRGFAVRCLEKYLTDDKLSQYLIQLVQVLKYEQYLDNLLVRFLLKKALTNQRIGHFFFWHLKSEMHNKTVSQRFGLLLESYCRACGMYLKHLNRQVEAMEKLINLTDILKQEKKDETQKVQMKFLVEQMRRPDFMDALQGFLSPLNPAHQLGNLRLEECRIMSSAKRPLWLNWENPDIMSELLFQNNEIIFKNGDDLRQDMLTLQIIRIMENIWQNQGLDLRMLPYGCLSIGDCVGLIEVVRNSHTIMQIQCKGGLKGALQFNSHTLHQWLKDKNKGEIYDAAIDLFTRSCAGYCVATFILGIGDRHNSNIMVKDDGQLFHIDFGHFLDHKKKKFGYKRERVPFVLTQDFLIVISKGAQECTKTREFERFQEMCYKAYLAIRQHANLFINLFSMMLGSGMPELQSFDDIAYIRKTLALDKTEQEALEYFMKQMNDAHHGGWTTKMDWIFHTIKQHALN
T1 sequence (Q63787 whole entry partner): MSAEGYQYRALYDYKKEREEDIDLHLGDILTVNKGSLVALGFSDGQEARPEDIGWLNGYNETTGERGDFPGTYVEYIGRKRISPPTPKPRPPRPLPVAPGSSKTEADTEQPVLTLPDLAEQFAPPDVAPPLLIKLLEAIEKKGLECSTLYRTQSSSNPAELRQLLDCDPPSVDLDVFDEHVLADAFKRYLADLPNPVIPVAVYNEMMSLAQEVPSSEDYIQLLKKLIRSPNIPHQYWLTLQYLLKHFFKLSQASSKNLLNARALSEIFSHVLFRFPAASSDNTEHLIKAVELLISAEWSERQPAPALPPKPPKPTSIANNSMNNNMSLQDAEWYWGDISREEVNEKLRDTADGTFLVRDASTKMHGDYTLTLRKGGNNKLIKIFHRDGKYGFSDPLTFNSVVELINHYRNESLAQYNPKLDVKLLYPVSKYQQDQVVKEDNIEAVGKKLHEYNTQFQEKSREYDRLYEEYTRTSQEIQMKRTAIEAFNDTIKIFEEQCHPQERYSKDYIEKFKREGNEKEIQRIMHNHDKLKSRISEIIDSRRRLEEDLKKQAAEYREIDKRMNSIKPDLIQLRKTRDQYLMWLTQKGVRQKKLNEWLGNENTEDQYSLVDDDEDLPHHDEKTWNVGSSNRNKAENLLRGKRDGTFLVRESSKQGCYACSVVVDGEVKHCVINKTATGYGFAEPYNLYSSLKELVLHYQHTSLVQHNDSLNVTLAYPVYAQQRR

With `C[C@H]1C(CC(C)(C)O)OC(=O)N1c1cc(-c2cnc(N)nc2C(F)(F)F)nc(N2CCOCC2)n1` (mixture of isomers) [Example 26, (4S,5R)- and (4S,5S)-3-(2′-amino-2-morpholino-4′-(trifluoromethyl)-[4,5′-bipyrimidin]-6-yl)-5-(2-hydroxy-2-methylpropyl)-4-methyloxazolidin-2-one], the IC50 was found to be 58 nM in experiment [1] and 857 nM on mTOR.
In the same order, the values of `CC1(CO)COC(=O)N1c1cc(-c2cnc(N)nc2C(F)(F)F)nc(N2CCOCC2)n1` (racemic) [Example 3, 3-(2′-amino-2-morpholino-4′-(trifluoromethyl)-4,5′-bipyrimidin-6-yl)-4-(hydroxymethyl)-4-methyloxazolidin-2-one] are 147 nM and 759 nM.
On to `Nc1ncc(-c2cc(N3C(=O)O[C@@H]4[C@@H](O)CC[C@@H]43)nc(N3CCOCC3)n2)c(C(F)(F)F)n1` (racemic) [Example 22, (3aR*,6R*,6aR*)-3-(2′-Amino-2-morpholino-4′-(trifluoromethyl)-[4,5′-bipyrimidin]-6-yl)-6-hydroxyhexahydro-2H-cyclopenta[d]oxazol-2-one], for which the figures for the IC50 (in experiment [1]; on mTOR) were 95 nM and 1390 nM, respectively.
For `Nc1ncc(-c2cc(N3C(=O)OC4C(O)CCC43)nc(N3CCOCC3)n2)c(C(F)(F)F)n1` (single isomer, unassigned) [Example 22A], in that order: 86 nM and 2120 nM.
In the case of `Nc1ncc(-c2cc(N3C(=O)OC4C(O)CCC43)nc(N3CCOCC3)n2)c(C(F)(F)F)n1` (single isomer, unassigned) [Example 22B], the IC50 turned out to be 148 nM in experiment [1] and 2300 nM at mTOR.
For `C[C@@H](O)C[C@H]1OC(=O)N(c2cc(-c3cnc(N)nc3C(F)(F)F)nc(N3CCOCC3)n2)[C@H]1C` (single isomer, unassigned) [Example 24], in that order: 45 nM and 1830 nM.
For `C[C@H](O)CC1OC(=O)N(c2cc(-c3cnc(N)nc3C(F)(F)F)nc(N3CCOCC3)n2)[C@H]1C` (single isomer, unassigned) [Example 25], in that order: 45 nM and 1830 nM.
In the case of `C[C@H]1COC(=O)N1c1cc(-c2cnc(N)nc2C(F)(F)F)nc(N2CCOCC2)n1` [Example 1, (S)-3-(2′-Amino-2-morpholin-4-yl-4′-trifluoromethyl-[4,5′]bipyrimidinyl-6-yl)-4-methyl-oxazolidin-2-one], the IC50 in experiment [1] turned out to be 48 nM; at mTOR, 964 nM.
For `CC1(C)OC(=O)N(c2cc(-c3cnc(N)nc3C(F)(F)F)nc(N3CCOCC3)n2)[C@H]1CO` [Example 2, (S)-3-(2′-Amino-2-morpholin-4-yl-4′-trifluoromethyl-[4,5′]bipyrimidinyl-6-yl)-4-hydroxymethyl-5,5-dimethyl-oxazolidin-2-one], in experiment [1], the IC50 amounted to 134 nM.
For `Nc1ncc(-c2cc(N3C(=O)O[C@H]4CCCC[C@@H]43)nc(N3CCOCC3)n2)c(C(F)(F)F)n1` [Example 4, (3aS,7aS)-3-(2′-Amino-2-morpholin-4-yl-4′-trifluoromethyl-[4,5′]bipyrimidinyl-6-yl)-hexahydro-benzooxazol-2-one], the IC50 in experiment [1] is 31 nM; on mTOR, 647 nM.
In the same order, the values of `COC[C@H]1COC(=O)N1c1cc(-c2cnc(N)nc2C(F)(F)F)nc(N2CCOCC2)n1` [Example 5, (S)-3-(2′-Amino-2-morpholin-4-yl-4′-trifluoromethyl-[4,5′]bipyrimidinyl-6-yl)-4-methoxymethyl-oxazolidin-2-one] are 93 nM and 1410 nM.
As for `C[C@@H]1OC(=O)N(c2cc(-c3cnc(N)nc3C(F)(F)F)nc(N3CCOCC3)n2)[C@H]1CO` [Example 6], the results for the IC50 (in experiment [1]; on mTOR) were 94 nM and 574 nM, respectively.
For `[2H]C1([2H])OC([2H])([2H])C([2H])([2H])N(c2nc(-c3cnc(N)nc3C(F)(F)F)cc(N3C(=O)O[C@H](C)[C@@H]3CO)n2)C1([2H])[2H]` [Example 8], in that order: 81 nM and 994 nM.
